# Legend:
# Type in all cases: functional
# [1] = system: Candida albicans; experiment: Antifungal activity against Candida albicans at 100 ug/disk after 48 hr by paper disk diffusion method; conditions: read-out: IZ
# [2] = system: Klebsiella pneumoniae; experiment: Antibacterial activity against Klebsiella pneumoniae at 100 ug/disk after 24 hr by paper disk diffusion method; conditions: read-out: IZ
# [3] = system: Aspergillus niger; experiment: Antifungal activity against Aspergillus niger after 48 hr by agar streak dilution method
# [4] = system: Aspergillus clavatus; experiment: Antifungal activity against Aspergillus clavatus at 100 ug/disc after 48 hr by paper disk diffusion method; conditions: read-out: IZ
# [5] = system: Shigella flexneri; experiment: Antibacterial activity against Shigella flexneri at 100 ug/disc after 24 hr by paper disk diffusion method; conditions: read-out: IZ
# [6] = system: Candida albicans; experiment: Antifungal activity against Candida albicans after 48 hr by agar streak dilution method
# [7] = system: Salmonella typhi; experiment: Antibacterial activity against Salmonella enterica subsp. enterica serovar Typhi at 100 ug/disk after 24 hr by paper disk diffusion method; conditions: read-out: IZ
# [8] = system: Aspergillus fumigatus; experiment: Antifungal activity against Aspergillus fumigatus at 100 ug/disc after 48 hr by paper disk diffusion method; conditions: read-out: IZ
# [9] = system: Pseudomonas aeruginosa; experiment: Antibacterial activity against Pseudomonas aeruginosa at 100 ug/disk after 24 hr by paper disk diffusion method; conditions: read-out: IZ
# [10] = system: Bacillus subtilis; experiment: Antibacterial activity against Bacillus subtilis after 24 hr by agar streak dilution method
# [11] = system: Shigella flexneri; experiment: Antibacterial activity against Shigella flexneri after 24 hr by agar streak dilution method
# [12] = system: Staphylococcus aureus; experiment: Antibacterial activity against Staphylococcus aureus after 24 hr by agar streak dilution method
# [13] = system: Proteus vulgaris; experiment: Antibacterial activity against Proteus vulgaris at 100 ug/disk after 24 hr by paper disk diffusion method; conditions: read-out: IZ
# [14] = system: Escherichia coli; experiment: Antibacterial activity against Escherichia coli at 100 ug/disk after 24 hr by paper disk diffusion method; conditions: read-out: IZ
# [15] = system: Aspergillus niger; experiment: Antifungal activity against Aspergillus niger at 100 ug/disk after 48 hr by paper disk diffusion method; conditions: read-out: IZ
# [16] = system: Salmonella typhi; experiment: Antibacterial activity against Salmonella enterica subsp. enterica serovar Typhi after 24 hr by agar streak dilution method
# [17] = system: Proteus vulgaris; experiment: Antibacterial activity against Proteus vulgaris after 24 hr by agar streak dilution method
# [18] = system: Aspergillus fumigatus; experiment: Antifungal activity against Aspergillus fumigatus after 48 hr by agar streak dilution method
# [19] = system: Aspergillus clavatus; experiment: Antifungal activity against Aspergillus clavatus after 48 hr by agar streak dilution method
# [20] = system: Pseudomonas aeruginosa; experiment: Antibacterial activity against Pseudomonas aeruginosa after 24 hr by agar streak dilution method
# [21] = system: Bacillus subtilis; experiment: Antibacterial activity against Bacillus subtilis at 100 ug/disk after 24 hr by paper disk diffusion method; conditions: read-out: IZ
# [22] = system: Klebsiella pneumoniae; experiment: Antibacterial activity against Klebsiella pneumoniae after 24 hr by agar streak dilution method
# [23] = system: Escherichia coli; experiment: Antibacterial activity against Escherichia coli after 24 hr by agar streak dilution method
# [24] = system: Staphylococcus aureus; experiment: Antibacterial activity against Staphylococcus aureus at 100 ug/disc after 24 hr by paper disk diffusion method; conditions: read-out: IZ
SMILES,zone of inhibition at 100 µg/disc [1],zone of inhibition at 100 µg/disc [2],MIC [3],zone of inhibition at 100 µg/disc [4],zone of inhibition at 100 µg/disc [5],MIC [6],zone of inhibition at 100 µg/disc [7],zone of inhibition at 100 µg/disc [8],zone of inhibition at 100 µg/disc [9],MIC [10],MIC [11],MIC [12],zone of inhibition at 100 µg/disc [13],zone of inhibition at 100 µg/disc [14],zone of inhibition at 100 µg/disc [15],MIC [16],MIC [17],MIC [18],MIC [19],MIC [20],also measured
Cc1cc(=O)oc2cc(Oc3nc(Nc4ccc(/N=C/c5ccc(Cl)cc5Cl)cc4)nc(N(C)C)n3)ccc12,12 mm,17 mm,100 µg/mL,17 mm,14 mm,100 µg/mL,14 mm,13 mm,12 mm,50 µg/mL,100 µg/mL,100 µg/mL,16 mm,13 mm,11 mm,100 µg/mL,50 µg/mL,100 µg/mL,50 µg/mL,100 µg/mL,zone of inhibition at 100 µg/disc [21]: 17 mm; MIC [22]: 50 µg/mL; MIC [23]: 100 µg/mL; zone of inhibition at 100 µg/disc [24]: 14 mm
Cc1cc(=O)oc2cc(Oc3nc(Nc4ccc(N5C(=O)C(CN6CCN(c7ccccn7)CC6)SC5c5ccc(Cl)c(Cl)c5)cc4)nc(N(C)C)n3)ccc12 (stereo unspecified),17 mm,19 mm,100 µg/mL,20 mm,19 mm,100 µg/mL,20 mm,18 mm,21 mm,25 µg/mL,50 µg/mL,50 µg/mL,20 mm,18 mm,16 mm,50 µg/mL,25 µg/mL,50 µg/mL,50 µg/mL,25 µg/mL,zone of inhibition at 100 µg/disc [21]: 21 mm; MIC [22]: 50 µg/mL; MIC [23]: 50 µg/mL; zone of inhibition at 100 µg/disc [24]: 19 mm
Cc1cc(=O)oc2cc(Oc3nc(Nc4ccc(/N=C/c5cccc(F)c5)cc4)nc(N(C)C)n3)ccc12,13 mm,16 mm,50 µg/mL,17 mm,19 mm,100 µg/mL,18 mm,14 mm,17 mm,50 µg/mL,50 µg/mL,100 µg/mL,14 mm,20 mm,18 mm,25 µg/mL,100 µg/mL,100 µg/mL,50 µg/mL,100 µg/mL,zone of inhibition at 100 µg/disc [21]: 16 mm; MIC [22]: 50 µg/mL; MIC [23]: 50 µg/mL; zone of inhibition at 100 µg/disc [24]: 13 mm
Cc1cc(=O)oc2cc(Oc3nc(Nc4ccc(/N=C/c5ccc(O)cc5O)cc4)nc(N(C)C)n3)ccc12,20 mm,19 mm,100 µg/mL,15 mm,18 mm,25 µg/mL,18 mm,18 mm,17 mm,25 µg/mL,100 µg/mL,12.5 µg/mL,17 mm,18 mm,14 mm,50 µg/mL,50 µg/mL,25 µg/mL,100 µg/mL,50 µg/mL,zone of inhibition at 100 µg/disc [21]: 18 mm; MIC [22]: 50 µg/mL; MIC [23]: 25 µg/mL; zone of inhibition at 100 µg/disc [24]: 20 mm
Cc1cc(=O)oc2cc(Oc3nc(Nc4ccc(N5C(=O)CSC5c5ccc(O)cc5)cc4)nc(N(C)C)n3)ccc12 (stereo unspecified),19 mm,15 mm,12.5 µg/mL,18 mm,19 mm,50 µg/mL,23 mm,21 mm,21 mm,12.5 µg/mL,50 µg/mL,12.5 µg/mL,21 mm,24 mm,24 mm,12.5 µg/mL,12.5 µg/mL,12.5 µg/mL,50 µg/mL,25 µg/mL,zone of inhibition at 100 µg/disc [21]: 20 mm; MIC [22]: 100 µg/mL; MIC [23]: 12.5 µg/mL; zone of inhibition at 100 µg/disc [24]: 22 mm
Cc1cc(=O)oc2cc(Oc3nc(Nc4ccc(N5C(=O)CSC5c5ccc(Cl)cc5Cl)cc4)nc(N(C)C)n3)ccc12 (stereo unspecified),16 mm,19 mm,100 µg/mL,19 mm,17 mm,100 µg/mL,16 mm,17 mm,16 mm,50 µg/mL,50 µg/mL,50 µg/mL,18 mm,17 mm,14 mm,100 µg/mL,50 µg/mL,50 µg/mL,50 µg/mL,50 µg/mL,zone of inhibition at 100 µg/disc [21]: 19 mm; MIC [22]: 50 µg/mL; MIC [23]: 50 µg/mL; zone of inhibition at 100 µg/disc [24]: 17 mm
Cc1cc(=O)oc2cc(Oc3nc(Nc4ccc(N5C(=O)C(CN6CCN(c7ccccn7)CC6)SC5c5ccc(Cl)cc5)cc4)nc(N(C)C)n3)ccc12 (stereo unspecified),26 mm,22 mm,50 µg/mL,25 mm,27 mm,6.25 µg/mL,24 mm,21 mm,18 mm,50 µg/mL,6.25 µg/mL,25 µg/mL,25 mm,23 mm,18 mm,12.5 µg/mL,12.5 µg/mL,12.5 µg/mL,12.5 µg/mL,50 µg/mL,zone of inhibition at 100 µg/disc [21]: 18 mm; MIC [22]: 25 µg/mL; MIC [23]: 50 µg/mL; zone of inhibition at 100 µg/disc [24]: 21 mm
CC(=O)N1CCN(c2ccc(OCC3COC(Cn4ccnc4)(c4ccc(Cl)cc4Cl)O3)cc2)CC1 (stereo unspecified) [KETOCONAZOLE],33 mm,–,≤ 3 µg/mL,31 mm,–,1 µg/mL,–,29 mm,–,–,–,–,–,–,30 mm,–,–,1 µg/mL,1 µg/mL,–,–
O=C(O)c1cn(C2CC2)c2cc(N3CCNCC3)c(F)cc2c1=O [CIPROFLOXACIN],–,33 mm,–,–,32 mm,–,30 mm,–,33 mm,1 µg/mL,≤ 3 µg/mL,1 µg/mL,31 mm,32 mm,–,1 µg/mL,1 µg/mL,–,–,1 µg/mL,zone of inhibition at 100 µg/disc [21]: 31 mm; MIC [22]: 1 µg/mL; zone of inhibition at 100 µg/disc [24]: 30 mm

# Source: ChEMBL document CHEMBL3046897, “Synthesis of 3-{4-[4-dimethylamino-6-(4-methyl-2-oxo-2H-chromen-7-yloxy)-[1,3,5]triazin-2-ylamino]-phenyl}-2-phenyl-5-(4-pyridin-2-yl-piperazin-1-ylmethyl)-thiazolidin-4-one and their biological evaluation” (2012)
